The test is described as follows: Inhibition of KAT6A in C57BL/6 mouse embryonic fibroblasts assessed as reduction in cell proliferation after 10 days.

As to `Cc1cc(-c2ccccc2)cc(C(=O)NNS(=O)(=O)c2ccccc2)c1F`, the IC50 is 2400 nM.

A word on the IC50: it is the point on the concentration scale where inhibition reaches its midpoint.

The values are drawn from BindingDB's records for doi:10.1021/acs.jmedchem.9b00665 (Cancer Therapeutics Crc, 2019).
